Experimental data published in PMC4835877, “HM71224, a novel Bruton’s tyrosine kinase inhibitor, suppresses B cell and monocyte activation and ameliorates arthritis in a mouse model: a potential drug for rheumatoid arthritis” (Arthritis Research & Therapy, 2016).

Tests used:
[1] = tested on: DBA/1 J mice with collagen-induced arthritis; assay: Collagen-induced arthritis (CIA) model; format: in vivo, mouse; details: dexamethasone 0.2 mg/kg once a day
Experimental: All animal experimental protocols were approved by the animal care and use committee of the Hanmi Research Center, and performed in accordance with approved guidelines. Male DBA/1 J mice (9 weeks old; n = 7 per group) were immunized with an emulsion of Complete Freund’s Adjuvant and bovine type II collagen (CII) (total volume, 0.07 mL) via intradermal injection at the base of the tail (day 0). Three weeks later, the mice received a booster immunization comprising bovine CII emulsified in Incomplete Freund’s Adjuvant. […] The arthritis score and body weight were measured three times per week for 2 weeks after administration of the drugs (Additional file 1: Figure S1). The arthritis score was determined by grading each paw from 0 to 4 based on erythema, swelling, and flexion of the joint and was expressed as the sum of the scores of all four paws. Serum levels of IL-6 were measured by Luminex analysis in a bead-based immunoassay (EMD Millipore Corporation). Serum levels of anti-CII and total IgG were measured by ELISA (Chondrex, Seattle, WA, USA; Bethyl Laboratories, Montgomery, TX, USA).
Micro-CT of the hind limbs was performed using a Siemens Inveon Micro-CT/PET scanner (Siemens Medical Solutions, Knoxville, TN, USA).
The hind legs of each mouse were fixed with 10 % formalin, decalcified in 5 % formic acid, and embedded in paraffin. Sections were then cut and stained with hematoxylin and eosin (H&E). The bone erosion index was scored from 0 to 4 according to the following criteria: 0 = no erosion, 1 = mild (focal subchondral erosion), 2 = moderate (multiple subchondral erosions), 3 = high (as above and focal erosion of talus), and 4 = maximum (multiple erosions of tarsal and metatarsal bones).
Figure S1. Experiment design of collagen induced arthritis. Untreated DBA/1J mice (n=7) served as healthy controls (Ctrl). DBA/1J mice (n= 56) were immunized Day 0 and day 21. On day 10 after boosting (i.e. day 31), the induction of CIA was evaluated. […] Immunized mice (n=42) were divided into 6 groups (n=7 in each group). […] CIA, collagen induced arthritis.

[2] = tested on: CD3+ T cells; assay: T cell signaling, phospho-flow of CD3/CD28-activated PBMCs; format: cell-based, human; details: CD3- and CD28-conjugated beads
Experimental: For phospho-flow, B cells were activated by crosslinking their BCRs with anti-human IgM antibodies (10 μg/mL; BD Biosciences) for 10 minutes at 37 °C. Cells were then fixed with 2 % paraformaldehyde at 37 °C for 12 minutes, permeabilized, and stained with anti-CD3-FITC (SK7; BD Biosciences), anti-CD20-PerCP-Cy5.5 (H1; BD Biosciences), anti-pBtk (Y223)-Alexa647 (N35-86; BD Biosciences), anti-pPLCγ2 (Y759)-Alexa647 (K86-689.37; BD Biosciences), anti-pSTAT1 (Y701)-Alexa647 (4a; BD Biosciences), anti-pSTAT3 (Y705)-Alexa647 (4/P-STAT3; BD Biosciences), anti-pSTAT5 (Y694)-Alexa647 (47; BD Biosciences), and anti-pERK1/2 (T202/204)-Alexa647 (20A; BD Biosciences) antibodies. The cells were then washed and analyzed on an LSR II flow cytometer (BD Biosciences). Data were analyzed using FlowJo software, version 8.8 (Treestar, Ashland, OR, USA).
Figure S5. Effect of HM71224 on human T cell signaling. […] The expression level of p-STAT1, p-STAT3, p-STAT5, and p-ERK1/2 by CD3+ T cells was then measured by phospho-flow cytometry.

`C[C@@H]1C[C@H]2[C@@H]3CCC4=CC(=O)C=C[C@]4(C)[C@@]3(F)[C@@H](O)C[C@]2(C)[C@@]1(O)C(=O)CO` [Dexa, dexamethasone, reference compound] was tested, and the “AS, arthritis score” value ([1]; D0) was 1.1±0.5, the “Wt, weight” value ([1]; D0) was 22.9±0.4 gram and the “AS, arthritis score” value ([1]; D1) was 0.9±0.5. For the same compound, the “AS, arthritis score” value ([1]; D4) was 0.4±0.2, the “AS, arthritis score” value ([1]; D6) was 0.3±0.2 and the “AS, arthritis score” value ([1]; D8) was 0.3±0.2. The “AS, arthritis score” value ([1]; D12) was 0.3±0.2, the “AS, arthritis score” value ([1]; D13) was 0.4±0.3 and the “AS, arthritis score” value ([1]; D15) was 0.3±0.2.

In the case of `C=CC(=O)N1CCC[C@@H](n2nc(-c3ccc(Oc4ccccc4)cc3)c3c(N)ncnc32)C1` [PCI-32765, Ibrutinib], the “T cell receptor signaling (p-STAT1, p-STAT3 and p-STAT5)” value [2] is reported as “not affected” and the “p-ERK1/2 in CD3+ T cells” value [2] is reported as “inhibited”.

`C[C@@H]1CCN(C(=O)CC#N)C[C@@H]1N(C)c1ncnc2[nH]ccc12` [Tofacitinib] was tested, and the “T cell receptor signaling (p-STAT1, p-STAT3 and p-STAT5)” value [2] was “significantly suppressed”.
